Our source for the DC50 values is patent US12077555B2, “STAT degraders and uses thereof” (Kymera Therapeutics, Inc., priority 2019, dated 2024).

One may read the DC50 as the midpoint of the concentration-degradation curve.

For the first assay, the target named is STAT3 (Homo sapiens, UniProt P40763). The assay can be described thus: STAT3 HiBiT degradation assay in transfected A549 cells. More on the design: expressed in transfected cells; host or cells: A549. The following applies: A549, 24 h; read-out: STAT3 HiBiT A549 degradation 24 h: Average external-Abs DC50. It counts as cell-based. The method in brief: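 Transfected A549 cells (~2000/well) plated 24 h, then treated 24 h at 37 °C, 5% CO2 with a 3-fold, 10-point compound dilution. HiBiT lytic luminescence read after 10 min at room temperature; remaining STAT3 normalized to negative and positive controls, four-parameter fit. DC50 binned A <0.01, B 0.01–0.1, C 0.1–1.0, D >1.0 µM.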
STAT3, sequence (P40763 whole entry): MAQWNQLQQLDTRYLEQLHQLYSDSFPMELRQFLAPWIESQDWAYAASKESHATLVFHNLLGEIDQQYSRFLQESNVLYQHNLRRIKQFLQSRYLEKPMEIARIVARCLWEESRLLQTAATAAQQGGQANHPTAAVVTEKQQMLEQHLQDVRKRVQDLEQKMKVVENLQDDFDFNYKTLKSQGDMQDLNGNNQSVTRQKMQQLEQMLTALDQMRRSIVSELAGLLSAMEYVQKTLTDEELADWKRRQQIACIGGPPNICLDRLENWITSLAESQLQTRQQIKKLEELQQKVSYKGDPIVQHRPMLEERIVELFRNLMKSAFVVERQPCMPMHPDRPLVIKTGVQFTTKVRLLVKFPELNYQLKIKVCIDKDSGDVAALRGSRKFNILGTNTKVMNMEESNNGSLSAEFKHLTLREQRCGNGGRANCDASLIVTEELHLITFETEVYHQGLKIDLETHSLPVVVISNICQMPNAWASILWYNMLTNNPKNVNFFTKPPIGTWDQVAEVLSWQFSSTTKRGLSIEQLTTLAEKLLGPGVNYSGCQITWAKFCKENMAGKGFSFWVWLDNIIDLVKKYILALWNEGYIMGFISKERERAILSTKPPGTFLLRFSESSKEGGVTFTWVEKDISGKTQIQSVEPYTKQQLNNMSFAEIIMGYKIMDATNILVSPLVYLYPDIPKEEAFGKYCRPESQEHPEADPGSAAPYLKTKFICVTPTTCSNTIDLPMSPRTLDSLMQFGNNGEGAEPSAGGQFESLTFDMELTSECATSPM
(HiBiT is a short tag that completes a luciferase, so light tracks the accessible tagged protein.)
Regarding `Cc1ncsc1-c1ccc([C@H](C)NC(=O)[C@@H]2C[C@@H](O)CN2C(=O)[C@@H](NC(=O)CCCc2cccc(OC[C@H](CCC(N)=O)NC(=O)[C@@H]3CCCN3C(=O)[C@H](CC(C)C)NC(=O)c3cc4cc(C(=O)P(=O)(O)O)ccc4[nH]3)c2Cl)C(C)(C)C)cc1` [Compound I-240], the DC50 fell in the range of 10 to 100 nM.
Still for that read-out and setting: in the case of `C/C(=C\C(=O)N[C@H]1CCc2cccc3c2N(C1=O)[C@H](C(=O)N[C@@H](CCC(N)=O)[C@@H](C)OCc1ccc(CCCCC(=O)N[C@H](C(=O)N2C[C@H](O)C[C@H]2C(=O)N[C@@H](C)c2ccc(-c4scnc4C)cc2)C(C)(C)C)cc1)C3)c1cccc(C(F)(F)P(=O)(O)O)c1` [Compound I-142] it was above 1000 nM.
Regarding `CC(=O)N1CC[C@H]2CC[C@@H](C(=O)N[C@@H](CCC(N)=O)C(=O)NCCCCCCCCC(=O)N[C@H](C(=O)N3C[C@H](O)C[C@H]3C(=O)NCc3ccc(-c4scnc4C)cc3)C(C)(C)C)N2C(=O)[C@@H](NC(=O)c2cc3cc(C(=O)P(=O)(O)O)ccc3[nH]2)C1` [Compound I-173], the DC50 is above 1000 nM.
The same measure, in the same setting: in the case of `Cc1ncsc1-c1ccc([C@H](C)NC(=O)[C@@H]2C[C@@H](O)CN2C(=O)[C@@H](NC(=O)CCCCCc2cccc(OC[C@H](CCC(N)=O)NC(=O)[C@@H]3CCCN3C(=O)[C@H](CC(C)C)NC(=O)c3cc4cc(C(=O)P(=O)(O)O)ccc4[nH]3)c2F)C(C)(C)C)cc1` [Compound I-279] it was below 10 nM; in that of `Cc1ncsc1-c1ccc([C@H](C)NC(=O)[C@@H]2C[C@@H](O)CN2C(=O)[C@@H](NC(=O)CCCCc2cccc(NC(=O)C(CCC(N)=O)NC(=O)[C@@H]3Cc4cccc5c4N3C(=O)[C@@H](NC(=O)c3cc4cc(C(=O)P(=O)(O)O)ccc4[nH]3)CC5)c2Cl)C(C)(C)C)cc1` (stereo partly drawn) [Compound I-246, diammonium 2-[[(2S,11S)-2-[(3-carbamoyl-1-[[2-chloro-3-(4-[[(2S)-1-[(2S,4R)-4-hydroxy-2-[[(1S)-1-[4-(4-methyl-1,3-thiazol-5-yl)phenyl]ethyl]carbamoyl]pyrrolidin-1-yl]-3,3-dimethyl-1-oxobutan-2-yl]carbamoyl]butyl)phenyl]carbamoyl]propyl)carbamoyl]-12-oxo-1-azatricyclo[6.4.1.0^[4,13]]trideca-4(13),5,7-trien-11-yl]carbamoyl]-1H-indole-5-carbonylphosphonate], 10 to 100 nM.
As to `Cn1c(=O)n(C2CCC(=O)NC2=O)c2cccc(CCCCCCC(=O)N3CC[C@H]4CC[C@@H](C(=O)N[C@@H](CCC(N)=O)C(=O)NC(c5ccccc5)c5ccccc5)N4C(=O)[C@@H](NC(=O)c4cc5cc(C(=O)P(=O)(O)O)ccc5[nH]4)C3)c21` (stereo partly drawn) [Compound I-124, 2-[[(5S,8S,10aR)-8-[[(1S)-3-carbamoyl-1-(diphenylmethylcarbamoyl)propyl]carbamoyl]-3-[7-[1-(2,6-dioxopiperidin-3-yl)-3-methyl-2-oxo-1,3-benzodiazol-4-yl]heptanoyl]-6-oxo-octahydropyrrolo[1,2-a][1,5]diazocin-5-yl]carbamoyl]-1H-indole-5-carbonylphosphonic acid], the DC50 is above 1000 nM.
With `Cc1ncsc1-c1ccc([C@H](C)NC(=O)[C@@H]2C[C@@H](O)CN2C(=O)[C@@H](NC(=O)CCCc2cccc(OC[C@H](CCC(N)=O)NC(=O)[C@@H]3Cc4cccc5c4N3C(=O)[C@@H](NC(=O)c3cc4cc(C(=O)P(=O)(O)O)ccc4[nH]3)CC5)c2Cl)C(C)(C)C)cc1` [Compound I-253], the DC50 is below 10 nM.
Same read-out and setting: in the case of `Cc1ncsc1-c1ccc(CNC(=O)[C@@H]2C[C@@H](O)CN2C(=O)[C@@H](NC(=O)CCCCCc2cccc(CC[C@H](CCC(N)=O)NC(=O)[C@@H]3Cc4cccc5c4N3C(=O)[C@@H](NC(=O)c3cc4cc(C(=O)P(=O)(O)O)ccc4[nH]3)CC5)c2)C(C)(C)C)cc1` [Compound I-224, diammonium 2-[[(2S,11S)-2-[[(3R)-1-carbamoyl-5-[3-[5-[[(2S)-1-[(2S,4R)-4-hydroxy-2-([[4-(4-methyl-1,3-thiazo1-5-yl)phenyl]methyl]carbamoyl)pyrrolidin-1-yl]-3,3-dimethyl-1-oxobutan-2-yl]carbamoyl]pentyl)phenyl]pentan-3-yl]carbamoyl]-12-oxo-1-azatricyclo[6.4.1.0^[4,13]]trideca-4(13),5,7-trien-11-yl]carbamoyl]-1H-indole-5-carbonylpho sphonate] it was above 1000 nM; in that of `Cc1ncsc1-c1ccc(CNC(=O)[C@@H]2C[C@@H](O)CC2C(=O)[C@@H](NC(=O)CCCCC/C=C\COC[C@H](CCC(N)=O)NC(=O)[C@@H]2Cc3cccc4c3N2C(=O)[C@@H](NC(=O)c2cc3cc(C(=O)P(=O)(O)O)ccc3[nH]2)CC4)C(C)(C)C)cc1` (some centres unmarked) [Compound I-171], 100 to 1000 nM; in that of `Cn1c(=O)n(C2CCC(=O)NC2=O)c2cccc(CCCCCC(=O)N3CC[C@H]4CC[C@@H](C(=O)N[C@@H](CCC(N)=O)C(=O)NC(c5ccccc5)c5ccccc5)N4C(=O)[C@@H](NC(=O)c4cc5cc(C(=O)P(=O)(O)O)ccc5[nH]4)C3)c21` (stereo partly drawn) [Compound I-123, 2-[[(5S,8S,10aR)-8-[[(1S)-3-carbamoyl-1-(diphenylmethylcarbamoyl)propyl]carbamoyl]-3-[6-[1-(2,6-dioxopiperidin-3-yl)-3-methyl-2-oxo-1,3-benzodiazol-4-yl]hexanoyl]-6-oxo-octahydropyrrolo[1,2-a][1,5]diazocin-5-yl]carbamoyl]-1H-indole-5-carbonylphosphonic acid], above 1000 nM.
As for `Cn1c(=O)n(C2CCC(=O)NC2=O)c2ccc(C3CC(CCCCC(=O)N4CC[C@H]5CC[C@@H](C(=O)N[C@@H](CCC(N)=O)C(=O)NC(c6ccccc6)c6ccccc6)N5C(=O)[C@@H](NC(=O)c5cc6cc(C(=O)P(=O)(O)O)ccc6[nH]5)C4)C3)cc21` (stereo partly drawn) [Compound I-208, 2-[[(5S,8S,10aR)-8-[[(1S)-3-carbamoyl-1-(diphenylmethylcarbamoyl)propyl]carbamoyl]-3-(5-[3-[1-(2,6-dioxopiperidin-3-yl)-3-methyl-2-oxo-1,3-benzodiazol-5-yl]cyclobutyl]pentanoyl)-6-oxo-octahydropyrrolo[1,2-a][1,5]diazocin-5-yl]carbamoyl]-1H-indole-5-carbonylphosphonic acid], the half-maximal degradation concentration (DC50) lay within 100 to 1000 nM.
Still for that read-out and setting: in the case of `Cc1ncsc1-c1ccc([C@H](C)NC(=O)[C@@H]2C[C@@H](O)CN2C(=O)[C@@H](NC(=O)CCCCCc2cccc(CNC(=O)[C@H](CCC(N)=O)NC(=O)[C@@H]3Cc4cccc5c4N3C(=O)[C@@H](NC(=O)c3cc4cc(C(=O)P(=O)(O)O)ccc4[nH]3)CC5)c2)C(C)(C)C)cc1` [Compound I-220, 2-[[(2S,11S)-2-[[(1S)-3-carbamoyl-1-([[3-(5[[(2S)-1-[(2S,4R)-4-hydroxy-2-[[(1S)-1-[4-(4-methyl-1,3-thiazol-5-yl)phenyl]ethyl]carbamoyl]pyrrolidin-1-yl]-3,3-dimethyl-1-oxobutan-2-yl]carbamoyl]pentyl)phenyl]methyl]carbamoyl)propyl]carbamoyl]-12-oxo-1-azatricyclo[6.4.1.0^[4,13]]trideca-4(13),5,7-trien-11-yl]carbamoyl]-1H-indole-5-carbonylphosphonic acid] it was 100 to 1000 nM; in that of `Cc1ncsc1-c1ccc(CNC(=O)[C@@H]2C[C@@H](O)CN2C(=O)[C@@H](NC(=O)CCCCc2cccc(OC[C@H](CCC(N)=O)NC(=O)[C@@H]3Cc4cccc5c4N3C(=O)[C@@H](NC(=O)c3cc4cc(C(=O)P(=O)(O)O)ccc4[nH]3)CC5)c2)C(C)(C)C)cc1` [Compound I-221], 10 to 100 nM; in that of `Cn1c(=O)n(C2CCC(=O)NC2=O)c2ccc(C3CCN(CCCC(=O)N4CC[C@H]5CC[C@@H](C(=O)N[C@@H](CCC(N)=O)C(=O)NC(c6ccccc6)c6ccccc6)N5C(=O)[C@@H](NC(=O)c5cc6cc(C(=O)P(=O)(O)O)ccc6[nH]5)C4)CC3)cc21` (stereo partly drawn) [Compound I-169, 2-[[(5S,8S,10aR)-8-[[(1S)-3-carbamoyl-1-(diphenylmethylcarbamoyl)propyl]carbamoyl]-3-(4-[4-[1-(2,6-dioxopiperidin-3-yl)-3-methyl-2-oxo-1,3-benzodiazol-5-yl]piperidin-1-yl]butanoyl)-6-oxo-octahydropyrrolo[1,2-a][1,5]diazocin-5-yl]carbamoyl]-1H-indole-5-carbonylphosphonic acid], 100 to 1000 nM.
Same read-out and setting: in the case of `Cc1ncsc1-c1ccc(CNC(=O)[C@@H]2C[C@@H](O)CN2C(=O)[C@@H](NC(=O)CCCCCCCOC[C@H](CCC(N)=O)NC(=O)[C@@H]2Cc3cccc4c3N2C(=O)[C@@H](NC(=O)c2cc3cc(C(=O)P(=O)(O)O)ccc3[nH]2)CC4)C(C)(C)C)cc1` [Compound I-155] it was above 1000 nM; in that of `Cc1ncsc1-c1ccc(CNC(=O)[C@@H]2C[C@@H](O)CN2C(=O)[C@@H](NC(=O)CN2CCC(Cc3ccc(CO[C@H](C)[C@H](CCC(N)=O)NC(=O)[C@@H]4Cc5cccc6c5N4C(=O)[C@@H](NC(=O)c4cc5cc(C(=O)P(=O)(O)O)ccc5[nH]4)CC6)cc3)CC2)C(C)(C)C)cc1` [Compound I-178], above 1000 nM.

The assay is the same for the next values; noted with them: read-out: STAT3 HiBiT A549 degradation 24 h: Average external-Abs DC50; A549, 24 h.
`Cn1c(=O)n([C@@H]2CCC(=O)NC2=O)c2ccc(C[C@H]3CC[C@@H](CC(=O)N4CC[C@H]5CC[C@@H](C(=O)N[C@@H](CCC(N)=O)C(=O)NC(c6ccccc6)c6ccccc6)N5C(=O)[C@@H](NC(=O)c5cc6cc(C(=O)P(=O)(O)O)ccc6[nH]5)C4)CC3)cc21` [Compound I-234, (2-(((5S,8S,10aR)-8-(((S)-5-amino-1-(benzhydrylamino)-1,5-dioxopentan-2-yl)carbamoyl)-3-(2-((1S,4R)-4-((1-((R)-2,6-dioxopiperidin-3-yl)-3-methyl-2-oxo-2,3-dihydro-1H-benzo[d]imidazol-5-yl)methyl)cyclohexyl)acetyl)-6-oxodecahydropyrrolo[1,2-a][1,5]diazocin-5-yl)carbamoyl)-1H-indole-5-carbonyl)phosphonic acid]: the 50% degradation concentration (DC50) is 10 to 100 nM.
